Measured values: paper PMC10112131, “Pharmacological Elevation of Cellular Dihydrosphingomyelin Provides a Novel Antiviral Strategy against West Nile Virus Infection” (Antimicrobial Agents and Chemotherapy, 2023)
Values joined by “and” are separate entries in the source; they are usually repeats but may differ in a detail not shown here. Equal values may be shown once. “Also recorded” adds a separate entry of the source. Read-outs that look alike come from different tables or passages of the source.

Legend:
West Nile virus (WNV) [1] = settings: Vero cells; for WNV infection: Fig 7
Vero cells [2] = settings: for CC50: read-out: CC50 in uninfected cells, 48-h treatment, Vero cells, ATP, 48 h
West Nile virus (WNV) [3] = assay: microbe, parasite or virus in culture; settings: Vero, 24 h, read-out: EC50 WNV
in vitro [4] = settings: African green monkey
Zika virus (ZIKV) [5] = assay: microbe, parasite or virus in culture; settings: Vero, 24 h, read-out: EC50 ZIKV
Usutu virus (USUV) [6] = settings: Vero cells
dengue virus (DENV-2) [7] = settings: Vero cells
Vero cells [8] = settings: low density, 24 h
[9] = system: vesicular stomatitis virus (VSV); assay: microbe, parasite or virus in culture; settings: Vero, 24 h, read-out: EC50 VSV
Vero cells [10] = assay: Lipidomics of treated Vero cells by mass spectrometry; type: cell-based; settings: 10 μM, 24 h; for Level of dihydrosphingomyelins (dhSMs): relative to control; for dhSM/SM ratio: vs vehicle, almost all dhSMs analyzed
Zika virus (ZIKV) [11] = settings: Vero cells
WNV RVPs = assay: Entry of WNV reporter virus particles (RVPs) into Vero cells, flow cytometry; type: cell-based, West Nile virus; settings: Vero pretreated 24 h, read 48 h p.i.
West Nile virus (WNV) [12] = settings: SH-SY5Y cells
[13] = biological target: T1, ceramide desaturase (Des1) (Homo sapiens, UniProt O15121)
T1 sequence (O15121 1-323): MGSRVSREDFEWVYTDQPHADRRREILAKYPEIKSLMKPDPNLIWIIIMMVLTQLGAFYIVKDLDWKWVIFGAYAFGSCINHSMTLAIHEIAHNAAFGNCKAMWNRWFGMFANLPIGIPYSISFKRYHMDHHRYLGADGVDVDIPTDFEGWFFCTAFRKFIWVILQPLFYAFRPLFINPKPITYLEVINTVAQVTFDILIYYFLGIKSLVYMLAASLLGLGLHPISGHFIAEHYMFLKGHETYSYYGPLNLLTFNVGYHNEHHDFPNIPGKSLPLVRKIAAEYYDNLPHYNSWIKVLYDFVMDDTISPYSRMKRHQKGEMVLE

dengue virus (DENV-2) [14] = assay: microbe, parasite or virus in culture; settings: DENV2, Vero, 48 h, read-out: EC50 DENV-2
in vitro [15] = settings: human
coxsackievirus B5 (CVB5) = assay: microbe, parasite or virus in culture; type: cell-based, CVB5 Faulkner; settings: for EC50: Enterovirus B, Vero, 24 h; for Antiviral efficacy against CVB5: Vero cells
[16] = system: vesicular stomatitis virus (VSV)
West Nile virus (WNV) [17] = assay: microbe, parasite or virus in culture; settings: SH-SY5Y, 24 h, read-out: EC50 WNV
West Nile virus (WNV) [18] = assay: Specific infectivity of WNV progeny released from treated Vero cells; type: cell-based; settings: vs vehicle
Usutu virus (USUV) [19] = assay: microbe, parasite or virus in culture; settings: Vero, 24 h, read-out: EC50 USUV

Question: For `CCCCCCCCCCCCCCC[C@@H](O)[C@H](COP(=O)([O-])OCC[N+](C)(C)C)NC(=O)CCCCCCCCCCC` [dhSM, N-Lauroyl-D-erythro-sphinganylphosphorylcholine, reference compound], which “WNV infection” value (West Nile virus (WNV) [1]) is on record?
Answer: significantly reduced WNV infection in a dose-dependent manner

Question: What about the “Cell viability estimated by ATP measurements” value (Vero cells [2]) of the same compound?
Answer: without reducing cell viability

Question: What does the source list for `O=C(OCCCCCCCCCCCCOC(=O)c1cc(O)c(O)c(O)c1)c1cc(O)c(O)c(O)c1` [AL-085]?
Answer: SI (CC50/EC50) WNV (West Nile virus (WNV) [1]): 25.0; EC50 (West Nile virus (WNV) [3]): 0.2 µM; CC50 (in vitro [4]): 5 µM

Question: Which results are given for `O=C(NCCCCCCCCCCCCNC(=O)c1ccc(O)c(O)c1O)c1ccc(O)c(O)c1O` [AL-274]?
Answer: SI (CC50/EC50) WNV (West Nile virus (WNV) [1]): >416; EC50 (Zika virus (ZIKV) [5]): 2.1 µM; SI (CC50/EC50) USUV (Usutu virus (USUV) [6]): >76.9; CC50 (Vero cells [2]): > 100 µM; SI (CC50/EC50) DENV-2 (dengue virus (DENV-2) [7]): >10.8; Effect on proliferation of Vero cells (Vero cells [8]): only cytostatic effects on Vero cells at high concentrations; EC50 [9]: 43 µM; EC50 (West Nile virus (WNV) [3]): 0.24 µM; Level of dihydrosphingomyelins (dhSMs) (Vero cells [10]): significant increase; dhSM/SM ratio (Vero cells [10]): significantly increased; SI (CC50/EC50) ZIKV (Zika virus (ZIKV) [11]): >47.6; Number of cells infected with RVPs (WNV RVPs): significantly reduced the number of infected cells; SI (CC50/EC50) WNV (West Nile virus (WNV) [12]): 20.5; CC50 (in vitro [4]): > 100 µM; IC50 [13]: 7.8 µM; EC50 (dengue virus (DENV-2) [14]): 9.2 µM; CC50 (in vitro [15]): 38.9 µM; Mean virus yield CVB5 (coxsackievirus B5 (CVB5)): 9.25E+07 PFU/mL and 7.64E+07 PFU/mL and 8.20E+07 PFU/mL and 8.13E+07 PFU/mL and 8.84E+07 PFU/mL and 6.70E+07 PFU/mL and 7.30E+07 PFU/mL and 7.92E+07 PFU/mL; EC50 (coxsackievirus B5 (CVB5)): > 100 µM; Antiviral efficacy against CVB5 (coxsackievirus B5 (CVB5)): undetectable; also recorded: no antiviral activity was observed; SI (CC50/EC50) VSV [16]: >2.3; EC50 (West Nile virus (WNV) [17]): 1.9 µM; Specific infectivity of released WNV particles (West Nile virus (WNV) [18]): significant reduction in their infectivity; EC50 (Usutu virus (USUV) [19]): 1.3 µM

Question: For `CCCCCCCCCCCCCC1=C([C@H](O)[C@@H](CO)NC(=O)CCCCCCC)C1` [GT-11, N-[(1R,2S)-2-hydroxy-1-hydroxymethyl-2-(2-tridecyl-1-cyclopropenyl)ethyl]octanamide, reference compound], which “WNV infection” value (West Nile virus (WNV) [1]) is on record?
Answer: inhibited WNV infection in a dose-dependent manner

Question: Which results are given for `O=C(O)c1cc(O)c(O)c(O)c1` [Gallic acid, 3,4,5-trihydroxybenzoic acid, reference compound]?
Answer: WNV yield (West Nile virus (WNV) [1]; Fig 1B): slight reduction in the WNV yield; EC50 (West Nile virus (WNV) [3]): ~100 µM; CC50 (in vitro [4]): > 100 µM

Question: With `O=C(NCCCCCCCCCCCCNC(=O)c1cc(O)c(O)c(O)c1)c1cc(O)c(O)c(O)c1` [AL-088, N,N′-(dodecane-1,12-diyl)bis(3,4,5-trihydroxybenzamide)] as the compound, how does the “SI (CC50/EC50) WNV” value (West Nile virus (WNV) [1]) read?
Answer: >45.0

Question: What about the EC50 (Zika virus (ZIKV) [5]) of the same compound?
Answer: 6.7 µM

Question: What about the “SI (CC50/EC50) USUV” value (Usutu virus (USUV) [6]) of the same compound?
Answer: >125

Question: And the CC50 (Vero cells [2])?
Answer: > 100 µM

Question: What about the “SI (CC50/EC50) DENV-2” value (dengue virus (DENV-2) [7]) of the same compound?
Answer: >13.9

Question: And the “Effect on proliferation of Vero cells” value (Vero cells [8])?
Answer: only cytostatic effects on Vero cells at high concentrations

Question: What about the EC50 [9] of the same compound?
Answer: 25.3 µM

Question: What about the EC50 (West Nile virus (WNV) [3]) of the same compound?
Answer: 2.2 µM

Question: What about the “Level of dihydroceramides (dhCers)” value (Vero cells [10]) of the same compound?
Answer: Significantly elevated levels

Question: What about the “Level of sphingomyelins (SMs)” value (Vero cells [10]) of the same compound?
Answer: slight reductions

Question: What about the “Level of dihydrosphingomyelins (dhSMs)” value (Vero cells [10]) of the same compound?
Answer: significant increase

Question: And the dhSM/SM ratio (Vero cells [10])?
Answer: significantly increased

Question: And the “SI (CC50/EC50) ZIKV” value (Zika virus (ZIKV) [11])?
Answer: >14.9

Question: And the “Number of cells infected with RVPs” value (WNV RVPs)?
Answer: significantly reduced the number of infected cells

Question: What about the “SI (CC50/EC50) WNV” value (West Nile virus (WNV) [12]) of the same compound?
Answer: 39.8

Question: What about the CC50 (in vitro [4]) of the same compound?
Answer: > 100 µM

Question: And the IC50 [13]?
Answer: 1 µM

Question: What about the EC50 (dengue virus (DENV-2) [14]) of the same compound?
Answer: 7.2 µM

Question: What about the CC50 (in vitro [15]) of the same compound?
Answer: 87.6 µM

Question: And the “Mean virus yield CVB5” value (coxsackievirus B5 (CVB5))?
Answer: 8.58E+07 PFU/mL and 7.12E+07 PFU/mL and 6.85E+07 PFU/mL and 8.01E+07 PFU/mL and 6.45E+07 PFU/mL and 7.26E+07 PFU/mL and 7.43E+07 PFU/mL and 8.33E+07 PFU/mL

Question: And the EC50 (coxsackievirus B5 (CVB5))?
Answer: > 100 µM

Question: And the “Antiviral efficacy against CVB5” value (coxsackievirus B5 (CVB5))?
Answer: undetectable; also recorded: no antiviral activity was observed

Question: What about the “SI (CC50/EC50) VSV” value [16] of the same compound?
Answer: >4.0

Question: And the EC50 (West Nile virus (WNV) [17])?
Answer: 2.2 µM

Question: What about the “Specific infectivity of released WNV particles” value (West Nile virus (WNV) [18]) of the same compound?
Answer: significant reduction in their infectivity

Question: What about the EC50 (Usutu virus (USUV) [19]) of the same compound?
Answer: 0.8 µM

Question: With `CCCCCCCCOC(=O)c1cc(O)c(O)c(O)c1` [AL-071] as the compound, how does the “SI (CC50/EC50) WNV” value (West Nile virus (WNV) [1]) read?
Answer: 6.6

Question: And the EC50 (West Nile virus (WNV) [3])?
Answer: 1.4 µM

Question: What about the CC50 (in vitro [4]) of the same compound?
Answer: 9.2 µM

Question: Which “SI (CC50/EC50) WNV” value (West Nile virus (WNV) [1]) does the source give for `O=C(OCCCCCCCCOC(=O)c1cc(O)c(O)c(O)c1)c1cc(O)c(O)c(O)c1` [AL-072] here?
Answer: 5.9

Question: And the EC50 (West Nile virus (WNV) [3])?
Answer: 3.9 µM

Question: What about the CC50 (in vitro [4]) of the same compound?
Answer: 23.2 µM
